Experimental findings from patent US20250304596A1, “PYRAZINE DERIVATIVES AND USES THEREOF” (FOGHORN THERAPEUTICS INC., priority 2022, published 2025) are described below.

Experiment [1] has as its target T1, HiBit-BRM fusion protein (Homo sapiens, UniProt P51531).
T1 construct: expressed in transfected cells
Briefly: HiBiT-BRM cell-based degradation assay (Nano-Glo HiBiT Lytic Detection, 24 h). The conditions noted are these: stable HeLa cell line expressing HiBiT-BRM; for DC50: read-out: BRM HiBit Degradation IC50. The procedure, abridged:
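Luminescence from LgBiT complementation after lysis measured HiBiT-BRM levels in stably expressing HeLa cells. Compounds were dosed at up to 30 μM final, in 3-fold 10-point dilutions, for 24 h. Percent degradation was scaled between DMSO wells and wells treated with 2 μM standard BRM/BRG1 degrader.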
On the technique in general: With HiBiT, luminescence reflects the tagged protein that the partner subunit can reach.

In experiment [2] the target is T2, HiBit-BRG1 fusion protein (Homo sapiens, UniProt P51532).
T2 construct: expressed in transfected cells
Briefly: HiBiT-BRG1 cell-based degradation assay (Nano-Glo HiBiT Lytic Detection, 24 h). The conditions noted are these: stable HeLa cell line expressing HiBit-BRG1 and LgBit; for Dmax: read-out: BRG1 HiBit Degradation Maximum (%); for DC50: read-out: BRMG1 HiBit Degradation IC50. The procedure, abridged: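 Degradation read by lytic NanoBiT luminescence after 24 h compound exposure of a stable HiBit-BRG1/LgBit HeLa line. Ten-point, 3-fold series in duplicate, top final dose 30 μM; DMSO and 2 μM standard degrader define 0% and 100% degradation.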

Each structure is given as a SMILES string.

T1 sequence (P51531 whole entry, the tested form may be a part): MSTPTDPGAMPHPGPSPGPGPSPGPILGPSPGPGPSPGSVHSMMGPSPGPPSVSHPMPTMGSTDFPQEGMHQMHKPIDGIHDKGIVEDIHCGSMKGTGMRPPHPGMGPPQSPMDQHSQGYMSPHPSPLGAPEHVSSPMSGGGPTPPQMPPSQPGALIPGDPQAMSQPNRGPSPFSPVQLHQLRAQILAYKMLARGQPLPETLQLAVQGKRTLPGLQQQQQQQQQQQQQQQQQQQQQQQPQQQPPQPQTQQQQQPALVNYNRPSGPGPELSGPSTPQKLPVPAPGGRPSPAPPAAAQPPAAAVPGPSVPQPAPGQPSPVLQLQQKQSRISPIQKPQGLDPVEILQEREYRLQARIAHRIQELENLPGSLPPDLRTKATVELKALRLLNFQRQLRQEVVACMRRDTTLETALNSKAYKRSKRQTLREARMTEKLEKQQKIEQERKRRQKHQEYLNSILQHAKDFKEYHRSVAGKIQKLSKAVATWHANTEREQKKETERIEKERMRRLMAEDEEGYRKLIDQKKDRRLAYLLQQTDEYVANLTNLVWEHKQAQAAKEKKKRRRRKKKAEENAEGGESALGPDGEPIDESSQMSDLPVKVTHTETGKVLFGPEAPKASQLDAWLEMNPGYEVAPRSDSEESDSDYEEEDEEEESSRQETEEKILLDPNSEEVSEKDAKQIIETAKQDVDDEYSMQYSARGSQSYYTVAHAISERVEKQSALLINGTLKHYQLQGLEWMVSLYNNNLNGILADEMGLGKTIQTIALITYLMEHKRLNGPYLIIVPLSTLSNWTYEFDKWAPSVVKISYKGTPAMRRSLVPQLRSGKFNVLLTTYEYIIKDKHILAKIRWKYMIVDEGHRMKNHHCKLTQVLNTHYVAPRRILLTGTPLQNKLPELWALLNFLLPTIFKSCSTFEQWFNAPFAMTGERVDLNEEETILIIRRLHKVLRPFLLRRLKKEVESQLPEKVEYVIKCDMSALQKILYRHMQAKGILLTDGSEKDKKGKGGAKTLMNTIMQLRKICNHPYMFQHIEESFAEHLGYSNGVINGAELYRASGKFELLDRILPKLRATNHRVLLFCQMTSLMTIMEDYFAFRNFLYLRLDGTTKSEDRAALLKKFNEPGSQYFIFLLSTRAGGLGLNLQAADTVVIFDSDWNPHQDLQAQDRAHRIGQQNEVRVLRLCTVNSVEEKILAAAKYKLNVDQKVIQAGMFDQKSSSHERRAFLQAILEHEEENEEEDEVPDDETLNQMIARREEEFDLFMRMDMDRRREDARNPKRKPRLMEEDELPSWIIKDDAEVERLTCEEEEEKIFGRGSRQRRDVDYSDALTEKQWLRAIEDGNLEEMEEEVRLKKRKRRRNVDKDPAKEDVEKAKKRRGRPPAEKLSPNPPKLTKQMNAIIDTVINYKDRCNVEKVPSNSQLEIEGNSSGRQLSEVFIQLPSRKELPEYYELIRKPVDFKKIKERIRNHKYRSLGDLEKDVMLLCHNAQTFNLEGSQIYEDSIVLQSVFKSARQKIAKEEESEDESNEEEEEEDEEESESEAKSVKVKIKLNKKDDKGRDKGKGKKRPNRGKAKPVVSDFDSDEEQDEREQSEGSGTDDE
T2 sequence (P51532 whole entry, the tested form may be a part): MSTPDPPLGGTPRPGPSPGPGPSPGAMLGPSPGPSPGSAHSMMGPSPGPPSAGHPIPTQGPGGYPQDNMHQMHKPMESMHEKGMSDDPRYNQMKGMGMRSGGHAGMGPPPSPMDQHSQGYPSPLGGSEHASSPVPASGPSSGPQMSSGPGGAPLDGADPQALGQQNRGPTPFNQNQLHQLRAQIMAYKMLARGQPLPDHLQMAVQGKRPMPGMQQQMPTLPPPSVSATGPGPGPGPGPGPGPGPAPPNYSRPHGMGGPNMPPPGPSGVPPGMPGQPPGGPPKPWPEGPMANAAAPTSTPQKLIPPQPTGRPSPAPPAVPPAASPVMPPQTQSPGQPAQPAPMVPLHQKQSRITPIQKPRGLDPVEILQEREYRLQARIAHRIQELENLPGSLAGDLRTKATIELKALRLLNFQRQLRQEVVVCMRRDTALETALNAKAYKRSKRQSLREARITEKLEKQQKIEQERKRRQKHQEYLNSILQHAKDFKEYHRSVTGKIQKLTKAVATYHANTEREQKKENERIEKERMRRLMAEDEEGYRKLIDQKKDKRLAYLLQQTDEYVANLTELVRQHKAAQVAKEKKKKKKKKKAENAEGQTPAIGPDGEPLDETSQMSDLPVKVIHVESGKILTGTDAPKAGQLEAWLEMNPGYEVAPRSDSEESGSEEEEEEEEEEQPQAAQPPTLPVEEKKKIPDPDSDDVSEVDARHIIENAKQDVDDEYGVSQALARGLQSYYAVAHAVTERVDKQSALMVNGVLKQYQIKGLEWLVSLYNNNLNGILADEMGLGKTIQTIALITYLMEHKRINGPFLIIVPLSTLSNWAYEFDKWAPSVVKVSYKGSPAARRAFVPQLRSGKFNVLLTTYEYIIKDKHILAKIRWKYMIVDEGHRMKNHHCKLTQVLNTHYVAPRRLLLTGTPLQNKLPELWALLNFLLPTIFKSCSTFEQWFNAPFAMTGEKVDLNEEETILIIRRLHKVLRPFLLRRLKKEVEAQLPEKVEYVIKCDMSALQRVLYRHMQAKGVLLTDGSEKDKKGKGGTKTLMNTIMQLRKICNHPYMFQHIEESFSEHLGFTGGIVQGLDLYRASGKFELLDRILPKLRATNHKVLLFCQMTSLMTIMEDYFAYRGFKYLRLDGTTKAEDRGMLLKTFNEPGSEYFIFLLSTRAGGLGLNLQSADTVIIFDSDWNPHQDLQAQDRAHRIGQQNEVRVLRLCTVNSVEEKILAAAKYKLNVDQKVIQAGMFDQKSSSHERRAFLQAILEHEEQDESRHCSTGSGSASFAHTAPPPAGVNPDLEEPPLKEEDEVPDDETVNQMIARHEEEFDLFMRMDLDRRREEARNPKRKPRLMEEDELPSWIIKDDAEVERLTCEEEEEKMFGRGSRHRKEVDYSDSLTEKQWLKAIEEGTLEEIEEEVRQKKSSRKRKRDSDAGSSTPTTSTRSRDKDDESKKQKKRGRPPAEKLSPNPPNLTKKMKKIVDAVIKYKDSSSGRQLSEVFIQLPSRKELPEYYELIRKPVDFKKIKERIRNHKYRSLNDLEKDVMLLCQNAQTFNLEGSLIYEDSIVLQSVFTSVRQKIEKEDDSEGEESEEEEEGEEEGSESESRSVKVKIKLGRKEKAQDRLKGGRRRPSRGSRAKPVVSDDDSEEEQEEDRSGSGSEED

As to `Cc1ncsc1-c1ccc([C@H](C)NC(=O)[C@@H]2C[C@@H](O)CN2C(=O)[C@@H](c2cc(-c3ccnc(N4CCC(c5sc6nnc(-c7ccccc7O)cc6c5C)CC4)c3)no2)C(C)C)cc1` [Compound 10, (2S,4R)-4-hydroxy-1-((R)-2-(3-(2-(4-(3-(2-hydroxyphenyl)-5-methylthieno[2,3-c]pyridazin-6-yl)piperidin-1-yl)pyridin-4-yl)isoxazol-5-yl)-3-methylbutanoyl)-N-((S)-1-(4-(4-methylthiazol-5-yl)phenyl)ethyl)pyrrolidine-2-carboxamide], in experiment [1], the “BRM HiBit Degradation Maximum (%)” value is listed as “A (“A” indicates maximum degradation ≥75%)” and the DC50 was greater than 10 nM. Besides, in experiment [2], the Dmax was greater than 75% and the DC50 is greater than 10 nM.

Turning to `Cc1ncsc1-c1ccc([C@H](C)NC(=O)[C@@H]2C[C@@H](O)CN2C(=O)[C@@H](c2cc([C@H]3CC[C@@H](c4cnc(N5CCC(c6sc7nnc(-c8ccccc8O)cc7c6C)CC5)nc4)CC3)no2)C(C)C)cc1` (single isomer, unassigned) [Compound 65], in experiment [1], the “BRM HiBit Degradation Maximum (%)” value is reported as “A (“A” indicates maximum degradation ≥75%)” and the DC50 is greater than 10 nM. Moreover, in experiment [2], the Dmax was less than 50% and the DC50 is greater than 1000 nM.

On to `Cc1ncsc1-c1ccc([C@H](C)NC(=O)[C@@H]2C[C@@H](O)CN2C(=O)[C@@H](c2cc(N3CC[C@H](c4sc5nnc(-c6ccccc6O)cc5c4C)C3)no2)C(C)C)cc1` [Compound 78, (2S,4R)-4-hydroxy-1-((R)-2-(3-((S)-3-(3-(2-hydroxyphenyl)-5-methylthieno[2,3-c]pyridazin-6-yl)pyrrolidin-1-yl)isoxazol-5-yl)-3-methylbutanoyl)-N-((S)-1-(4-(4-methylthiazol-5-yl)phenyl)ethyl)pyrrolidine-2-carboxamide], for which, in experiment [1], the “BRM HiBit Degradation Maximum (%)” value is listed as “A (“A” indicates maximum degradation ≥75%)” and the DC50 is less than 10 nM. In experiment [2], the Dmax is greater than 50% and the DC50 was greater than 10 nM.

As to `Cc1ncsc1-c1ccc([C@H](C)NC(=O)[C@@H]2C[C@@H](O)CN2C(=O)[C@@H](c2cc(-c3cnc(N4CC[C@@H](c5sc6nnc(-c7ccccc7O)cc6c5C)C[C@H]4C)nc3)no2)C(C)C)cc1` [Compound 30, (2S,4R)-4-hydroxy-1-((R)-2-(3-(2-((2R,4R)-4-(3-(2-hydroxyphenyl)-5-methylthieno[2,3-c]pyridazin-6-yl)-2-methylpiperidin-1-yl)pyrimidin-5-yl)isoxazol-5-yl)-3-methylbutanoyl)-N-((S)-1-(4-(4-methylthiazol-5-yl)phenyl)ethyl)pyrrolidine-2-carboxamide], in experiment [1], the “BRM HiBit Degradation Maximum (%)” value was “A (“A” indicates maximum degradation ≥75%)” and the DC50 was less than 10 nM. Moreover, in experiment [2], the Dmax was less than 50% and the DC50 is greater than 1000 nM.

On to `Cc1ncsc1-c1ccc([C@H](C)NC(=O)[C@@H]2C[C@@H](O)CN2C(=O)[C@@H](c2cc(-c3ccc(N4CCC(c5cc6cc(-c7ccccc7O)nnc6s5)CC4)nc3)no2)C(C)C)cc1` [Compound 39, (2S,4R)-4-hydroxy-1-((R)-2-(3-(6-(4-(3-(2-hydroxyphenyl)thieno[2,3-c]pyridazin-6-yl)piperidin-1-yl)pyridin-3-yl)isoxazol-5-yl)-3-methylbutanoyl)-N-((S)-1-(4-(4-methylthiazol-5-yl)phenyl)ethyl)pyrrolidine-2-carboxamide], for which, in experiment [1], the “BRM HiBit Degradation Maximum (%)” value is recorded as “A (“A” indicates maximum degradation ≥75%)” and the DC50 is greater than 10 nM. In addition, in experiment [2], the Dmax is less than 50% and the DC50 is greater than 1000 nM.

In the case of `Cc1ncsc1-c1ccc([C@H](C)NC(=O)[C@@H]2C[C@@H](O)CN2C(=O)[C@@H](c2cc(N3CCC(c4cnc(N5CCC(c6sc7nnc(-c8ccccc8O)cc7c6C)CC5)nc4)CC3)no2)C(C)C)cc1` (single isomer, unassigned) [Compound 60], in experiment [1], the “BRM HiBit Degradation Maximum (%)” value was “A (“A” indicates maximum degradation ≥75%)” and the DC50 was less than 10 nM. In experiment [2], the Dmax was greater than 50% and the DC50 is greater than 10 nM.

With `Cc1ncsc1-c1ccc([C@H](C)NC(=O)[C@@H]2C[C@@H](O)CN2C(=O)C(c2cc(N3CC4(C3)CN(c3cc5nnc(-c6ccccc6O)cc5s3)C4)no2)C(C)C)cc1` (stereo partly drawn) [Compound 67, (2S,4R)-4-hydroxy-1-(2-(3-(6-(3-(2-hydroxyphenyl)thieno[3,2-c]pyridazin-6-yl)-2,6-diazaspiro[3.3]heptan-2-yl)isoxazol-5-yl)-3-methylbutanoyl)-N-((S)-1-(4-(4-methylthiazol-5-yl)phenyl)ethyl)pyrrolidine-2-carboxamide], in experiment [1], the “BRM HiBit Degradation Maximum (%)” value is “A (“A” indicates maximum degradation ≥75%)” and the DC50 was less than 10 nM. Further, the Dmax in experiment [2] is less than 50%.

`Cc1cc(-c2cc([C@H](C(=O)N3C[C@H](O)C[C@H]3C(=O)N[C@@H](C)c3ccc(-c4scnc4C)cc3)C(C)C)on2)cnc1N1CCC(c2cc3cc(-c4ccccc4O)nnc3s2)CC1` (single isomer, unassigned) [Compound 2]: in experiment [1], the “BRM HiBit Degradation Maximum (%)” value is on record as “A (“A” indicates maximum degradation ≥75%)” and the DC50 is greater than 10 nM. Besides, in experiment [2], the Dmax was less than 50% and the DC50 was greater than 1000 nM.

For `Cc1ncsc1-c1ccc([C@H](C)NC(=O)[C@@H]2C[C@@H](O)CN2C(=O)[C@@H](c2cc(-c3cnc(N4CC[C@@H](c5sc6nnc(-c7ccccc7O)cc6c5C5CC5)C4)nc3)no2)C(C)C)cc1` [Compound 75, (2S,4R)-1-((R)-2-(3-(2-((R)-3-(5-cyclopropyl-3-(2-hydroxyphenyl)thieno [2,3-c]pyridazin-6-yl)pyrrolidin-1-yl)pyrimidin-5-yl)isoxazol-5-yl)-3-methylbutanoyl)-4-hydroxy-N-((S)-1-(4-(4-methylthiazol-5-yl)phenyl)ethyl)pyrrolidine-2-carboxamide], in experiment [1], the “BRM HiBit Degradation Maximum (%)” value was “B (“B” indicates maximum degradation ≥50%)” and the DC50 was greater than 10 nM. The Dmax in experiment [2] is less than 50%.

Take `Cc1nc(N2CCC(c3sc4nnc(-c5ccccc5O)cc4c3C)CC2)ncc1-c1cc([C@H](C(=O)N2C[C@H](O)C[C@H]2C(=O)N[C@@H](C)c2ccc(-c3scnc3C)cc2)C(C)C)on1` [Compound 93, (2S,4R)-4-hydroxy-1-((R)-2-(3-(2-(4-(3-(2-hydroxyphenyl)-5-methylthieno[2,3-c]pyridazin-6-yl)piperidin-1-yl)-4-methylpyrimidin-5-yl)isoxazol-5-yl)-3-methylbutanoyl)-N-((S)-1-(4-(4-methylthiazol-5-yl)phenyl)ethyl)pyrrolidine-2-carboxamide]: in experiment [1], the “BRM HiBit Degradation Maximum (%)” value is reported as “A (“A” indicates maximum degradation ≥75%)” and the DC50 is less than 10 nM. For the same compound, the Dmax in experiment [2] was greater than 50%.

With `Cc1ncsc1-c1ccc([C@H](C)NC(=O)[C@@H]2C[C@@H](O)CN2C(=O)[C@@H](c2cc(-c3cnc(N4C[C@H]5C[C@@H](C4)[C@@H]5c4cc5cc(-c6ccccc6O)nnc5s4)nc3)no2)C(C)C)cc1` [Compound 18, (2S,4R)-4-hydroxy-1-((R)-2-(3-(2-((1R,5S,6R)-6-(3-(2-hydroxyphenyl)thieno[2,3-c]pyridazin-6-yl)-3-azabicyclo[3.1.1]heptan-3-yl)pyrimidin-5-yl)isoxazol-5-yl)-3-methylbutanoyl)-N-((S)-1-(4-(4-methylthiazol-5-yl)phenyl)ethyl)pyrrolidine-2-carboxamide], in experiment [1], the “BRM HiBit Degradation Maximum (%)” value is listed as “A (“A” indicates maximum degradation ≥75%)” and the DC50 is less than 10 nM. For the same compound, in experiment [2], the Dmax was less than 50% and the DC50 was greater than 1000 nM.

Take `Cc1ncsc1-c1ccc([C@H](C)NC(=O)[C@@H]2C[C@@H](O)CN2C(=O)[C@@H](c2cc(-c3ccnc(N4CC[C@@H](c5cc6nnc(-c7ccccc7O)cc6s5)C4)n3)no2)C(C)C)cc1` [Compound 83, (2S,4R)-4-hydroxy-1-((R)-2-(3-(2-((R)-3-(3-(2-hydroxyphenyl)thieno[3,2-c]pyridazin-6-yl)pyrrolidin-1-yl)pyrimidin-4-yl)isoxazol-5-yl)-3-methylbutanoyl)-N-((S)-1-(4-(4-methylthiazol-5-yl)phenyl)ethyl)pyrrolidine-2-carboxamide]: in experiment [1], the “BRM HiBit Degradation Maximum (%)” value was “A (“A” indicates maximum degradation ≥75%)” and the DC50 is greater than 10 nM. In experiment [2], the Dmax is less than 50%.

As to `Cc1ncsc1-c1ccc([C@H](C)NC(=O)[C@@H]2C[C@@H](O)CN2C(=O)[C@@H](c2cc(-c3ccnc(N4CCC(c5sc6nnc(-c7ccccc7O)cc6c5C)CC4)n3)no2)C(C)C)cc1` [Compound 58, (2S,4R)-4-hydroxy-1-((R)-2-(3-(2-(4-(3-(2-hydroxyphenyl)-5-methylthieno[2,3-c]pyridazin-6-yl)piperidin-1-yl)pyrimidin-4-yl)isoxazol-5-yl)-3-methylbutanoyl)-N-((S)-1-(4-(4-methylthiazol-5-yl)phenyl)ethyl)pyrrolidine-2-carboxamide], in experiment [1], the “BRM HiBit Degradation Maximum (%)” value was “A (“A” indicates maximum degradation ≥75%)” and the DC50 is less than 10 nM. Also, in experiment [2], the Dmax was greater than 75% and the DC50 is greater than 10 nM.
